A short description of data set [1]: TEM morphology and size of peptide nano-assemblies over time. The class given is physicochemical. To be noted: for Initial nanostructure (TEM): DMSO stock 5 mM diluted 100X with water, 50 μM (legend: 40 μM), 1% DMSO, fixed immediately (0 h); for Nanoparticle size by TEM, 4 h / Nanoparticle size by TEM, 0 h: H2O with 1% DMSO, 40 μM / 50 μM. The text has this: Self-assembling peptides with good biocompatibility may be used to construct nanocarriers for drug delivery. We recently reported the use of FFVLK, the reverse sequence of KLVFF, as a self-aggregating β-sheet forming domain for the delivery of HER2 targeting peptides for successful treatment of breast cancer in xenograft models. Such FFVLK containing peptide is able to self-assemble into nanoparticles. Upon intravenous administration, the FFVLK-nanoparticle was able to transform into nanofibrillar network when encountering HER2 at the tumor sites. To investigate the morphology of the nano-assembly formed by the eight self-assembling peptides, we dissolved each of these peptides in DMSO (5 mM) and then diluted them 100X with water at a final peptide concentration of 50 μM to induce spontaneous self-assembly. Each sample was fixed immediately after peptide solution preparation and at 4 h time point for subsequent TEM processing and analysis. As clearly shown in Fig. 4a, all eight self-assembling peptides initially formed some nanostructures: nanoparticles for ITSVV, YFTEF, ISDNL, LDFPI, FAGFT, FGFDP, and FTISD; nanofibers for FFVDF. […] LDFPI (8 nm) maintained the particulate morphology without changing of diameter in 4 h. FFVDF formed nanofibers at 0 and 4 h. […] Time-dependent size variations of pentapeptides in water were further confirmed by DLS spectra (Supplementary Fig. 18). The initial diameters of nanoparticles formed by seven pentapeptides were larger than that observed by TEM, probably due to hydration radius. The size of the nanostructure increased over time, correlating well with the morphologic transformation. […] Circular dichroism (CD) was used to monitor the secondary structures of the nano-assembly of the eight self-assembling peptides over time (Supplementary Fig. 20).
Pentapeptides monomers were dissolved in DMSO at a concentration of 5.0 mM, followed by quick injection into water at a volume ratio of 1:99 for DMSO and H2O to obtain the nanomaterials solution (50 μM). For 30 mM pentapeptide solution, the pentapeptide was dissolved in water and sonicated for 3 min.
The pentapeptide solution with the concentration of 20 μM (10 μL) was placed dropwise onto a copper mesh for 5 min, then most of the liquid was removed through a filter paper. Ten microliters of uranyl acetate solution were employed to stain the samples for 5 min, followed by drying the spare liquid with the filter. Finally, the copper mesh was washed with 10 μL of deionized water, which was blotted after staining and drying at room temperature. All of the samples were observed by TEM (Tecnai G2 20 S-TWIN) at an accelerating voltage of 200 kV.

Data set [2] is described as follows: Fluorescent-activation screening assay on OBOC beads (NBD). In kind it is physicochemical. To be noted: peptide N-terminally capped with NBD on TentaGel S beads, in water, fluorescence microscope. The source says:
It is well known that Aβ16–20 peptide sequence KLVFF can self-assemble into nanofibers in water. We, therefore, chose it as a model peptide to test our screening strategy and used KAAGG as the non-assembling negative control. These control peptides, N-terminally capped with NBD were synthesized with standard Fmoc-chemistry, and TentaGel S resin beads as solid support but without any cleavable linker. After side-chain deprotection, the beads were thoroughly washed with DMF, which was replaced stepwise with water or methanol and then examined under a fluorescent microscope. […] This is expected as the hydrophobicity-sensitive fluorescence dye NBD would fluoresce brightly under hydrophobic condition, in this case, methanol. In water, we expect fluorescent signal emitted from non-sequestered NBD to diminish, unless it is buried inside a hydrophobic environment such as within peptide aggregates or β-sheets formed by KLVFF peptides.
Once the screening method has been validated with our model KLVFF peptide, a totally random pentapeptide library with 19[5] permutations (cysteine was omitted from the library) was constructed using our previously published methods (Supplementary Fig. 3)[23]. Again, TentaGel S resin (loading of 0.31 mmol/g) was used as the solid support. The pentapeptides in the library were N-terminally capped with NBD. […] The positive bead with an intense fluorescent signal (pointed with a solid arrow) was noted. The rest of the beads were considered negative or weak positive beads. From a total of approximately 100 000 beads screened, we selected a total of eight strongest fluorescent positive beads and four dark beads as negative beads. The peptides were then resynthesized in soluble form and purified by high-performance liquid chromatography (HPLC) for testing (Supplementary Figs. 4–12). The amino acid sequences of the eight self-assembling pentapeptides are FTISD, ITSVV, YFTEF, ISDNL, LDFPI, FAGFT, FGFDP, and FFVDF. Not unexpectedly, of the 40 amino acids in these eight pentapeptides, 50% are hydrophobic residues, predominated by Phe (11 Phe, 4 Ile, 3 Val, and 2 Leu). For the remaining 20 amino acids, six are acidic residues (5 Asp and 1 Glu) and seven are neutral and hydrophilic (4 Thr and 3 Ser). The rest are 2 Pro, 2 Gly, 1 Tyr, 1 Asn, and 1 Ala. All eight peptides have at least two hydrophobic residues. Six out of the eight peptides have one negatively charged residue (Asp or Glu). The remaining two peptides are neutral. […] For the Pro containing pentapeptides, LDFPI and FGFDP, the Pro residue, which promotes peptide turns, resides at the fourth and fifth positions, but not in the middle. Not unexpectedly, all the four randomly selected negative non-assembling peptides (RITTR, PLVKA, PFTTR, and QIMRW) have very different sequences, and contain at least one positive charged amino acid.
The OBOC pentapeptide libraries (19[5]) were built using Fmoc strategy SPPS (solid-phase peptide synthesis) (Supplementary Fig. 3). TentaGel S Resin (named N-beads with loading 0.31 mmol/g) was used as the solid phase support. The pentapeptide sequence of X1 X2 X3 X4 X5 was constructed in the library, in which X1−X5 represents either Ala, Asp, Glu, Phe, Gly, His, Ile, Lys, Leu, Met, Asn, Pro, Gln, Arg, Ser, Thr, Val, Trp, and Tyr residues. During the synthesis of OBOC library, solid support beads were mixed and split equally in each cycle, then different amino acids were added, separately, the process was repeated four times. The synthesis of peptides was used anhydrous DMF as solvent. The Fmoc group was removed by 20% (v/v) piperidine in DMF and the deprotection time was 10 min twice. During the coupling step, the HBTU (4 mM) and Fmoc-amino acid (4 mM) were dissolved in DMF containing NMM (0.4 mM). The coupling time was 50 min. Qualitative Fmoc deprotection and coupling were confirmed by ninhydrin test. All the above experiments were carried out in the solid phase peptide synthesis vessels with sieves in it. […]

Results on 8 substances are retold here after article PMC8302598, “Rapid discovery of self-assembling peptides with one-bead one-compound peptide library” (Nature Communications, 2021).

For the substance “ITSVV [self-assembling pentapeptide identified from OBOC library]”, in data set [1], the “Initial nanostructure (TEM)” value is listed as “nanoparticles” and the “Nanoparticle size by TEM, 4 h” value is ~ 300 nm. In addition, the “Fluorescence (beads)” value in data set [2] is given as “On”.

Consider “ISDNL [self-assembling pentapeptide identified from OBOC library]”, for which the “Initial nanostructure (TEM)” value in data set [1] was “nanoparticles”. In addition, the “Fluorescence (beads)” value in data set [2] is reported as “On”.

“YFTEF [self-assembling pentapeptide identified from OBOC library]”: in data set [1], the “Initial nanostructure (TEM)” value is recorded as “nanoparticles”; the “Nanoparticle size by TEM, 0 h” value is given as 41 nm; the “Nanoparticle size by TEM, 4 h” value was 75 nm. For the same substance, the “Fluorescence (beads)” value in data set [2] was “On”.

For “FTISD [self-assembling pentapeptide identified from OBOC library]”, the “Initial nanostructure (TEM)” value in data set [1] was “nanoparticles”. In addition, in data set [2], the “Fluorescence (beads)” value is recorded as “On”.

Take “FGFDP [self-assembling pentapeptide identified from OBOC library]”: the “Initial nanostructure (TEM)” value in data set [1] was “nanoparticles”. The “Fluorescence (beads)” value in data set [2] was “On”.

As for “LDFPI [self-assembling pentapeptide identified from OBOC library]”, in data set [1], the “Initial nanostructure (TEM)” value is “nanoparticles”; the “Nanoparticle size by TEM, 0 h” value stood at 8 nm; the “Nanoparticle size by TEM, 4 h” value stood at 8 nm. Also, in data set [2], the “Fluorescence (beads)” value is reported as “On”.

In the case of “FFVDF [self-assembling pentapeptide identified from OBOC library, forms nanofibers]”, in data set [1], the “Initial nanostructure (TEM)” value is “nanofibers”. The “Fluorescence (beads)” value in data set [2] is on record as “On”.

For the substance “FAGFT [self-assembling pentapeptide identified from OBOC library]”, in data set [1], the “Initial nanostructure (TEM)” value is recorded as “nanoparticles”; the “Nanoparticle size by TEM, 0 h” value is recorded as 10 nm; the “Nanoparticle size by TEM, 4 h” value turned out to be 15 nm. The “Fluorescence (beads)” value in data set [2] is “On”.
